Target: T1, Proteasome subunit beta type-5 (Homo sapiens, UniProt P28074)
T1 sequence (P28074 whole entry): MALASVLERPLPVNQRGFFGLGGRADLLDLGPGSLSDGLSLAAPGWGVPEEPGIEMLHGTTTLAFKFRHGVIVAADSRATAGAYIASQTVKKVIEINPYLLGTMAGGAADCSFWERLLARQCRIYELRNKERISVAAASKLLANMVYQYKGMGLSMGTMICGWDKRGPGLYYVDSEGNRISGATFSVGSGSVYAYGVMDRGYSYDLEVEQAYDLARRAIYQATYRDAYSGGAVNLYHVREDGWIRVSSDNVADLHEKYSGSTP
Experiment: Proteasome Inhibitory Activity
Description: The proteasome used in the present invention is human erythrocyte 20S proteasome, and the enzyme, fluorescent substrate and test buffer are all purchased from Enzo.

| IC50 [nM] | Structure (SMILES) |
| --- | --- |
| 4.86 | CSC[C@H](NC(=O)c1cc(Cl)ccc1Cl)C(=O)N[C@@H](CC(C)C)B(O)O [US11542283, Compound IV-9] |
| 7.47 | CC(C)C[C@H](NC(=O)CNC(=O)c1cc(Cl)ccc1Cl)B1OC(=O)CC(CC(=O)O)(C(=O)O)O1 (some centres not stated) [US11542283, Compound MLN-9708] |

— BindingDB's records for patent US11542283 (Jiangsu Chia Tai Fenghai Pharmaceutical, 2023)
